# Laboratory results taken from publication PMC6161302, “Oral Bioavailability of Kinsenoside in Beagle Dogs Measured by LC-MS/MS: Improvement of Ex Vivo Stability of a Lactone-Containing Compound” (Pharmaceutics, 2018).
# Read-outs that look alike come from different tables or passages of the source.
# Columns and labels:
# [1] = Stability of KD in fresh dog plasma; type: in vitro ADME, beagle dog
# Description: (§1) The stability of KD in fresh dog whole blood and plasma was studied by decreasing pH, lowering temperature, and adding different esterase inhibitors. All experiments were performed in triplicate using three different lots of fresh dog whole blood or plasma. To decrease the pH of the matrixes, 1% formic acid (FA) or 1% AA was individually added to the fresh blank whole blood or plasma with a ratio of 1:9. Likewise, DDVP, NaF, and PMSF were separately added to fresh blank whole blood or plasma to obtain a final concentration of 50 mM. After 5 min pre-incubation, KD was spiked with pretreated whole blood or plasma to obtain final concentrations of 15, 150, and 1500 ng/mL. The whole blood mixture was maintained at room temperature or on wet ice for 2 h except for samples of time zero, which were centrifuged immediately to collect plasma, while the plasma mixture was maintained at room temperature or on wet ice for 0, 2, and 6 h. Then, the obtained plasma samples were cleaned up using the previously mentioned sample preparation procedures. The remaining percentage of KD was calculated by dividing the plasma concentration of KD under different incubation conditions by the concentration of time zero samples [13].
# [2] = Method-validation stability of kinsenoside in beagle dog plasma under various storage conditions; type: in vitro ADME
# Description: The stability of stock solutions (2.5 mg/mL for KD and 1 mg/mL for IS) and working solutions (125 and 50,000 ng/mL for KD and 500 ng/mL for IS) was evaluated at room temperature for 6 h and at −80 °C for 31 days. The matrix stability was evaluated from three replicates of each QC sample stored in different conditions using freshly prepared calibration standards. The QC samples were analyzed after storage on wet ice for 2 h (short-term stability) and at −80 °C for 21 days (long-term stability). The freeze–thaw stability was determined after freezing at −80 °C and thawing on wet ice for three cycles. To evaluate the post-preparative stability, QC samples were analyzed after being held in the autosampler for 24 h at 4 °C. The samples for stability evaluation were considered stable if the deviation was within ±15% of the nominal concentration.
# [3] = Stability of KD in fresh dog whole blood; type: in vitro ADME, beagle dog
# Description: as §1
# [4] = design: method as in PMID 26686829; conditions: cited from earlier work
# [5] = Pharmacokinetic and bioavailability study of KD in beagle dogs (intravenous and oral); type: in vivo, beagle dog; conditions: for Tmax / AUC(0-t): beagle; for k el: read-out: λz (converted)
# Excerpt: The validated method was applied to a preclinical pharmacokinetic and bioavailability study of KD in beagle dogs following intravenous and oral administration. The study protocol (Project ID: HUST-D-201802004) was approved on 5 March 2018 by the Animal Ethics Committee in Tongji Medical College, Huazhong University of Science and Technology (Wuhan, China). Six beagle dogs (3 males and 3 females) weighing 10.0 ± 2.0 kg were purchased from Ruikesen Experimental Animal Co., Ltd. (Wuhan, China). All dogs were individually housed at a temperature of 25 °C and 50% relative humidity under a 12 h light/dark cycle. A laboratory standard diet and water were provided ad libitum. After overnight fasting with unlimited access to water, the six beagle dogs were randomly divided into two groups. One group was intravenously injected via lateral saphenous vein with 3 mg/kg KD, while the other group was given a single oral dose of 3 mg/kg KD. After a 7-day washout period, each group received the other treatment. For intravenous administration, blood samples (approximately 1 mL) were collected via cephalic vein into 3 mL K2EDTA-containing vacutainer tubes at pre-dose and at 0.083, 0.25, 0.5, 0.75, 1, 1.25, 1.5, 2, 2.5, 3, 4, and 5 h after administration. For oral administration, blood samples (approximately 1 mL) were collected at pre-dose and at 0.25, 0.5, 0.75, 1, 1.25, 1.5, 2, 2.5, 3, 4, 5, 6, and 7 h post-dose. Blood samples were maintained on wet ice and centrifuged under 4 °C at 3500 × g for 5 min to obtain plasma. Plasma samples were immediately transferred to pre-cooled plastic Eppendorf tubes and stored at −80 °C until analyzed.
# The pharmacokinetic parameters were calculated using noncompartmental analysis by Phoenix WinNonlin software (Version 6.4, Pharsight Corporation, Princeton, NC, USA). The maximum plasma concentration (Cmax) and time to reach Cmax (Tmax) were obtained directly from the plasma concentration time course. The area under the plasma concentration versus time curve (AUC) from time zero to the last measured time point (AUC0–t) and from time zero to infinity (AUC0–∞) were estimated using the log-linear trapezoidal rule, while the elimination half-life (t1/2), the total body clearance (CL), and the apparent volume of distribution (Vd) were processed by Phoenix WinNonlin software. Oral bioavailability (F) was calculated using the formula F = (AUCpo/AUCiv) × (Doseiv/Dosepo).
# liver microsomal enzyme = test system: liver microsomal enzyme; design: method as in doi:10.5478/MSL.2015.6.2.48; conditions: cited from earlier work
# [6] = plasma samples after three freeze–thaw cycles, nominal 15 ng/mL
# [7] = plasma samples after three freeze–thaw cycles, nominal 150 ng/mL
# [8] = plasma samples after three freeze–thaw cycles, nominal 1500 ng/mL
# [9] = plasma samples on wet ice for 2 h, nominal 15 ng/mL
# [10] = plasma samples on wet ice for 2 h, nominal 150 ng/mL
# [11] = plasma samples on wet ice for 2 h, nominal 1500 ng/mL
# [12] = plasma samples stored at −80 °C for 21 days, nominal 15 ng/mL
# [13] = plasma samples stored at −80 °C for 21 days, nominal 150 ng/mL
# [14] = plasma samples stored at −80 °C for 21 days, nominal 1500 ng/mL
# [15] = post-preparative samples stored at 4 °C for 24 h, nominal 15 ng/mL
# [16] = post-preparative samples stored at 4 °C for 24 h, nominal 150 ng/mL
# [17] = post-preparative samples stored at 4 °C for 24 h, nominal 1500 ng/mL
# [18] = both sexes, dog, plasma, beagle dogs, intravenous, 3 mg/kg
# [19] = both sexes, dog, plasma, beagle dogs, oral, 3 mg/kg
structure (smiles),measurement,setting,value
"O=C1C[C@@H](O[C@@H]2O[C@H](CO)[C@@H](O)[C@H](O)[C@H]2O)CO1 [kinsenoside, Kinsenoside]",KD remaining,"[1]; dog plasma, 2 h incubation on wet ice",more than 90%
same,percentage remaining of KD,"[1]; neutral and acidified dog plasma, 6 h incubation on wet ice",around 85%
same,"Accuracy (stability, % of nominal)",[2]; [6],89.53%
same,Calculated Conc.,[2]; [6],13.43 ± 0.46 ng/mL
same,"Accuracy (stability, % of nominal)",[2]; [7],90.89%
same,Calculated Conc.,[2]; [7],136.33 ± 4.50 ng/mL
same,"Accuracy (stability, % of nominal)",[2]; [8],92.44%
same,Calculated Conc.,[2]; [8],1386.67 ± 24.94 ng/mL
same,"Accuracy (stability, % of nominal)",[2]; [9],95.11%
same,Calculated Conc.,[2]; [9],14.27 ± 0.74 ng/mL
same,"Accuracy (stability, % of nominal)",[2]; [10],93.87%
same,Calculated Conc.,[2]; [10],140.80 ± 2.98 ng/mL
same,"Accuracy (stability, % of nominal)",[2]; [11],91.61%
same,Calculated Conc.,[2]; [11],1374.13 ± 24.63 ng/mL
same,"Accuracy (stability, % of nominal)",[2]; [12],90.89%
same,Calculated Conc.,[2]; [12],13.63 ± 0.36 ng/mL
same,"Accuracy (stability, % of nominal)",[2]; [13],91.78%
same,Calculated Conc.,[2]; [13],137.67 ± 2.62 ng/mL
same,"Accuracy (stability, % of nominal)",[2]; [14],93.78%
same,Calculated Conc.,[2]; [14],1406.67 ± 26.25 ng/mL
same,"Accuracy (stability, % of nominal)",[2]; [15],89.47%
same,Calculated Conc.,[2]; [15],13.42 ± 0.37 ng/mL
same,"Accuracy (stability, % of nominal)",[2]; [16],91.67%
same,Calculated Conc.,[2]; [16],137.50 ± 4.99 ng/mL
same,"Accuracy (stability, % of nominal)",[2]; [17],88.89%
same,Calculated Conc.,[2]; [17],1333.33 ± 34.60 ng/mL
same,KD remaining,[3]; 2 h incubation at room temperature,60%
same,KD remaining,"[3]; 2 h incubation on wet ice, three concentration levels (15, 150, 1500 ng/mL)",around 90%
same,stability in rat plasma (ex vivo),[4],unstable
same,Tmax,"[5]; both sexes, dog, plasma, iv, 3 mg/kg, beagle dogs",5 min
same,AUC(0-t),"[5]; both sexes, dog, plasma, iv, 3 mg/kg, beagle dogs, intravenous, 3 mg/kg, read-out: AUC0–t",6820 ± 295 ng·h/mL
same,AUC(0-t),"[5]; both sexes, dog, plasma, iv, 3 mg/kg, beagle dogs, intravenous, 3 mg/kg, read-out: mean AUC0-t (converted)",114 ng·h/mL
same,Tmax,"[5]; both sexes, dog, plasma, po, 3 mg/kg, beagle dogs",~62.4 min
same,AUC(0-t),"[5]; both sexes, dog, plasma, po, 3 mg/kg, beagle dogs, oral, 3 mg/kg, read-out: AUC0–t",1880 ± 17.6 ng·h/mL
same,AUC(0-t),"[5]; both sexes, dog, plasma, po, 3 mg/kg, beagle dogs, oral, 3 mg/kg, read-out: mean AUC0-t (converted)",31.3 ng·h/mL
same,AUC(0-inf),[5]; [18],6830 ± 295 ng·h/mL
same,Cmax,[5]; [18],11400 ng/mL
same,Vd,[5]; [18],0.3 ± 0.0171 L/kg
same,clearance,[5]; [18],7.33 mL/min/kg
same,half-life,[5]; [18],28.2 ± 0.78 min
same,k el,[5]; [18],0.000408 s⁻¹
same,bioavailability,"[5]; both sexes, dog, plasma, beagle dogs, oral 3 mg/kg vs intravenous 3 mg/kg, read-out: Bioavailability (absolute oral)",27.6%
same,AUC(0-inf),[5]; [19],1910 ± 42.5 ng·h/mL
same,Cmax,[5]; [19],965 ± 59.7 ng/mL
same,half-life,[5]; [19],54.9 ± 5.64 min
same,k el,[5]; [19],0.000212 s⁻¹
same,bioavailability of KD relative to the majority of extensively researched isoflavone glycosides,[5]; comparison with literature values,at least 4 fold
same,stability against liver microsomal enzyme-associated metabolism,liver microsomal enzyme,stable
